From patent US20150065447A1, “SURVIVAL BENEFIT IN PATIENTS WITH SOLID TUMORS WITH ELEVATED C-REACTIVE PROTEIN LEVELS” (Incyte Corporation, priority 2013, published 2015)
“And” between values parts separate entries of the source, which are not always exact repeats. Identical values can stand only once. Blank lines part the entries; values can stand above or below the compound they belong to.

Columns and labels:
[1] = target: T1, human JAK2 (a.a. 828-1132) (Homo sapiens, UniProt O60674); assay: In vitro JAK Kinase Assay (HTRF), JAK2 (for JAK2/JAK1 ratio); type: biochemical; settings: ratio of IC50s, 1 mM ATP
T1 construct: JAK2 (a.a. 828-1132); His tag (N); made in house; host or cells: insect cells (baculovirus)
Description: (§1) The catalytic activity of JAK1 and JAK2 was assayed by measuring the phosphorylation of a biotinylated peptide. The phosphorylated peptide was detected by homogenous time resolved fluorescence (HTRF). […] Reactions were carried out at room temperature for 1 hr and then stopped with 20 μL 45 mM EDTA, 300 nM SA-APC, 6 nM Eu-Py20 in assay buffer (Perkin Elmer, Boston, Mass.). Binding to the Europium labeled antibody took place for 40 minutes and HTRF signal was measured on a Fusion plate reader (Perkin Elmer, Boston, Mass.).

[2] = target: T2, human JAK1 (a.a. 837-1142) (Homo sapiens, UniProt P23458); assay: In vitro JAK Kinase Assay (HTRF), JAK1; type: biochemical; settings: 1 mM ATP
T2 construct: human JAK1 (a.a. 837-1142); His tag (N); made in house; host or cells: insect cells (baculovirus)
Description: as §1

[3] = system: Subjects with metastatic pancreatic adenocarcinoma that is recurrent or treatment refractory; assay: Randomized, double-blind study of capecitabine + ruxolitinib phosphate vs capecitabine + placebo, survival by baseline CRP / mGPS; settings: for Hazard ratio (Rux/Pbo): Cox regression with formal interaction testing; for Active vs Control Hazard Ratio: ruxolitinib vs placebo; for Number of Subjects with Disease Progression, Observed: progression-free survival (death or progressive disease by RECIST 1.1)
Description: Baseline C-reactive protein (CRP) levels were measured for each patient prior to treatment in Arm 1 and Arm 2. Serum CRP concentrations were measured by RMB (RBM multiplexed Luminex®) commercial assay (Myriad RBM). […] The baseline CRP level was calculated on a per patient basis. The patients comprised two groups. Group 1 included all patients who were randomized and took Study Drug. […] For Group 1, the CRP level was the last tested CRP level taken before first dose of Study Drug. For Group 2, the last available value of CRP was taken, if available, for example from screening procedures. With baseline CRP levels for all patients, the median was calculated using normal statistical methods known to one skilled in the art.

[4] = Cox regression analysis of overall survival using baseline predictors, CRP > 13 mg/L, ruxolitinib arm
[5] = overall survival, C-Reactive Protein > 13 (μg/mL), Intent-to-Treat, capecitabine + ruxolitinib arm, N = 31
[6] = overall survival, C-Reactive Protein > 13 (μg/mL), ruxolitinib arm, N = 31
[7] = overall survival, C-Reactive Protein ≦ 13 (μg/mL), Intent-to-Treat, capecitabine + ruxolitinib arm, N = 28
[8] = overall survival, C-Reactive Protein ≦ 13 (μg/mL), ruxolitinib arm, N = 28
[9] = patients with CRP<13 mg/L, ruxolitinib group
[10] = patients with CRP>13 mg/L, ruxolitinib group
[11] = progression-free survival, Table 3, C-Reactive Protein ≦ 13 (μg/mL), ruxolitinib arm, N = 28
[12] = progression-free survival, Table 4, C-Reactive Protein ≦ 13 (μg/mL), ruxolitinib arm, N = 31

T2 sequence (P23458 849-1154): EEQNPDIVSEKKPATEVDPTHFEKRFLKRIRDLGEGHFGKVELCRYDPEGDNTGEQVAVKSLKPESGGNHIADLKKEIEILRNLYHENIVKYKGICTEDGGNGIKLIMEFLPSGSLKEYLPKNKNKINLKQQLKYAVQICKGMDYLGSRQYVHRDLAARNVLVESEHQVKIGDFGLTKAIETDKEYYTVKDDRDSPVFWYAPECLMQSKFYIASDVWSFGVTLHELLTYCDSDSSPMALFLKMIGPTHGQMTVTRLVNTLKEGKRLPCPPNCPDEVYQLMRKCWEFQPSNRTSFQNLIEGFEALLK
T1 sequence (O60674 828-1132): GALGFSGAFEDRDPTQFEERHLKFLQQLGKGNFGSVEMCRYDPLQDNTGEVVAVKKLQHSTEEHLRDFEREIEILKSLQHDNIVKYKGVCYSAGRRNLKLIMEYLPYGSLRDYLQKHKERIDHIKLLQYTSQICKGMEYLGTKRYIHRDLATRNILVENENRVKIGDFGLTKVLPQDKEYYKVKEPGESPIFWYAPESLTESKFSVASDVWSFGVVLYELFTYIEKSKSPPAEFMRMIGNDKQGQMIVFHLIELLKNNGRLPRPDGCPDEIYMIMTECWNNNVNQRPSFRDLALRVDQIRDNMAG

SMILES: C[C@@H](O)c1nc2cnc3ccsc3c2n1[C@H]1CC[C@H](CC#N)OC1 [Compound 1, ((2R,5S)-5-{2-[(1R)-1-hydroxyethyl]-1H-imidazo[4,5-d]thieno[3,2-b]pyridin-1-yl}tetrahydro-2H-pyran-2-yl)acetonitrile]
JAK2/JAK1 [1]: >10
IC50 [2]: < 100 nM

SMILES: N#CCC1(n2cc(-c3ncnc4[nH]ccc34)cn2)CN(C2CCN(C(=O)c3ccnc(C(F)(F)F)c3F)CC2)C1 [Compound 7, {l-{l-[3-Fluoro-2-(trifluoromethyl)isonicotinoyl]piperidin-4-yl}-3-[4-(7H-pyrrolo[2,3-d]pyrimidin-4-yl)-1H-pyrazol-1-yl]azetidin-3-yl}acetonitrile]
JAK2/JAK1 [1]: >10
IC50 [2]: < 10 nM

SMILES: N#CCC1(n2cc(-c3ncnc4[nH]ccc34)cn2)CN(C2CCN(C(=O)Nc3ccc(F)cc3C(F)(F)F)CC2)C1 [Compound 8, 4-{3-(Cyanomethyl)-3-[4-(7H-pyrrolo[2,3-d]pyrimidin-4-yl)-1H-pyrazol-1-yl]azetidin-1-yl}-N-[4-fluoro-2-(trifluoromethyl)phenyl]piperidine-1-carboxamide]
JAK2/JAK1 [1]: >10
IC50 [2]: < 10 nM

SMILES: N#CCC1(n2cc(-c3ncnc4[nH]ccc34)cn2)CN(C2CCN(C(=O)c3ccnc(C(F)(F)F)n3)CC2)C1 [Compound 9, [3-[4-(7H-pyrrolo[2,3-d]pyrimidin-4-yl)-1H-pyrazol-1-yl]-1-(l-{[2-(trifluoromethyl)pyrimidin-4-yl]carbonyl}piperidin-4-yl)azetidin-3-yl]acetonitrile]
JAK2/JAK1 [1]: >10
IC50 [2]: < 10 nM

SMILES: N#CC[C@]1(n2cc(-c3ncnc4[nH]ccc34)cn2)C[C@H](N2CCN(C(=O)c3ccnc(C(F)(F)F)n3)CC2)C1 [Compound 10, [trans-1-[4-(7H-pyrrolo[2,3-d]pyrimidin-4-yl)-1H-pyrazol-1-yl]-3-(4-{[2-(trifluoromethyl)pyrimidin-4-yl]carbonyl}piperazin-1-yl)cyclobutyl]acetonitrile]
JAK2/JAK1 [1]: >10
IC50 [2]: < 10 nM

SMILES: N#CC[C@]1(n2cc(-c3ncnc4[nH]ccc34)cn2)C[C@H](N2CCC(Oc3cc(CN4CC(O)C4)cc(C(F)(F)F)n3)CC2)C1 [Compound 11, {trans-3-(4-{[4-[(3-hydroxyazetidin-1-yl)methyl]-6-(trifluoromethyl)pyridin-2-yl]oxy}piperidin-1-yl)-1-[4-(7H-pyrrolo[2,3-d]pyrimidin-4-yl)-1H-pyrazol-1-yl]cyclobutyl}acetonitrile]
JAK2/JAK1 [1]: >10
IC50 [2]: < 10 nM

SMILES: N#CC[C@]1(n2cc(-c3ncnc4[nH]ccc34)cn2)C[C@H](N2CCC(Oc3cc(CN4CCC[C@H]4CO)cc(C(F)(F)F)n3)CC2)C1 [Compound 12, {trans-3-(4-{[4-{[(2S)-2-(hydroxymethyl)pyrrolidin-1-yl]methyl}-6-(trifluoromethyl)pyridin-2-yl]oxy}piperidin-1-yl)-1-[4-(7H-pyrrolo[2,3-d]pyrimidin-4-yl)-1H-pyrazol-1-yl]cyclobutyl}acetonitrile]
JAK2/JAK1 [1]: >10
IC50 [2]: < 10 nM

SMILES: N#CC[C@]1(n2cc(-c3ncnc4[nH]ccc34)cn2)C[C@H](N2CCC(Oc3cc(CN4CCC[C@@H]4CO)cc(C(F)(F)F)n3)CC2)C1 [Compound 13, {trans-3-(4-{[4-{[(2R)-2-(hydroxymethyl)pyrrolidin-1-yl]methyl}-6-(trifluoromethyl)pyridin-2-yl]oxy}piperidin-1-yl)-1-[4-(7H-pyrrolo[2,3-d]pyrimidin-4-yl)-1H-pyrazol-1-yl]cyclobutyl}acetonitrile]
JAK2/JAK1 [1]: >10
IC50 [2]: < 10 nM

SMILES: C[C@H](NC(=O)c1cc(F)c(N2CC(CC#N)(n3cc(-c4ncnc5[nH]ccc45)cn3)C2)cc1F)C(F)(F)F [Compound 16, 4-{3-(cyanomethyl)-3-[4-(7H-pyrrolo[2,3-d]pyrimidin-4-yl)-1H-pyrazol-1-yl]azetidin-1-yl}-2,5-difluoro-N-[(1S)-2,2,2-trifluoro-1-methylethyl]benzamide]
JAK2/JAK1 [1]: >10
IC50 [2]: < 10 nM

SMILES: N#CC[C@H](C1CCCC1)n1cc(-c2ncnc3[nH]ccc23)cn1 [Ruxolitinib, ruxolitinib]
(%) subjects Censored [3, 4]: (20.0) %
(%) subjects who died, Observed [3, 4]: (80.0) %
Number subjects Censored [3, 4]: 6
Number subjects who died, Observed [3, 4]: 24
Hazard ratio (Rux/Pbo) ([3]; subgroup CRP > 13 mg/L): 0.473
Hazard ratio (Rux/Pbo) ([3]; subgroup Karnofsky: 60-80): 0.799
Hazard ratio (Rux/Pbo) ([3]; subgroup Low albumin): 0.618
HR for progression-free survival (PFS) ([3]; intent-to-treat analysis including all randomized patients): 0.75
(%) of Subjects Censored [3, 5]: ( 19.4%)
(%) of Subjects Died, Observed [3, 5]: ( 80.6%)
Number of Subjects Censored [3, 5]: 6
Number of Subjects Died, Observed [3, 5]: 25
Median Time to Event [3, 6]: 83.0 days
Month 3 Survival Rate(%) [3, 6]: 48.4%
Month 6 Survival Rate(%) [3, 6]: 41.5%
Month 9 Survival Rate(%) [3, 6]: 16.5%
Month 12 Survival Rate(%) [3, 6]: 11.0%
Active vs Control Hazard Ratio ([3]; overall survival, C-Reactive Protein > 13 (μg/mL), Cox regression): 0.473
(%) of Subjects Censored [3, 7]: ( 28.6%)
(%) of Subjects Died, Observed [3, 7]: ( 71.4%)
Number of Subjects Censored [3, 7]: 8
Number of Subjects Died, Observed [3, 7]: 20
Median Time to Event [3, 8]: 185.5 days
Month 3 Survival Rate(%) [3, 8]: 82.1%
Month 6 Survival Rate(%) [3, 8]: 50.0%
Month 9 Survival Rate(%) [3, 8]: 37.3%
Month 12 Survival Rate(%) [3, 8]: 19.9%
Active vs Control Hazard Ratio ([3]; overall survival, C-Reactive Protein ≦ 13 (μg/mL), Cox regression): 0.887
Hazard Ratio, Treatment (ruxolitinib vs placebo) ([3]; overall survival, CRP > 13 mg/L, Cox regression accounting for baseline characteristics): 0.50 and 0.501
hazard ratio for PFS ([3]; patients with CRP<13 mg/L): 0.82
probability of PFS at 3 months [3, 9]: 39%
probability of PFS at 6 months [3, 9]: 25%
probability of PFS at 9 months [3, 9]: 10%
HR for PFS ([3]; patients with CRP>13 mg/L): 0.62
proportion showing disease stabilization (RECIST v1.1) ([3]; patients with CRP>13 mg/L receiving ruxolitinib with postbaseline assessments (N=19)): 68.4%
probability of progression-free survival at 3 months [3, 10]: 35%
probability of progression-free survival at 6 months [3, 10]: 21%
probability of progression-free survival at 9 months [3, 10]: 11%
HR for OS ([3]; patients with mGPS of 0 (N=51)): 0.91
HR for OS ([3]; patients with mGPS of 1 (N=34)): 0.71
HR for OS ([3]; patients with mGPS of 2 (N=36)): 0.49
HR (survival) ([3]; post-hoc analysis, patients with CRP≦10 mg/L (N=51)): 0.91
HR in favor of ruxolitinib (survival) ([3]; post-hoc analysis, patients with a CRP>10 mg/L (N=70)): 0.60
Number of Subjects with Disease Progression, Observed ([3]; Table 3, C-Reactive Protein ≦ 13 (μg/mL), ruxolitinib arm, N = 28): 26
Number of Subjects with Disease Progression, Observed ([3]; Table 4, C-Reactive Protein ≦ 13 (μg/mL), ruxolitinib arm, N = 31): 26
(%) of Subjects Censored [3, 11]: ( 7.1%)
(%) of Subjects with Disease Progression, Observed [3, 11]: ( 92.9%)
Median Time to Event [3, 11]: 80.0 days
Month 3 Survival Rate(%) [3, 11]: 39.3%
Month 6 Survival Rate(%) [3, 11]: 25.0%
Month 9 Survival Rate(%) [3, 11]: 10.0%
Number of Subjects Censored [3, 11]: 2
Active vs Control Hazard Ratio ([3]; progression-free survival, Table 3, C-Reactive Protein ≦ 13 (μg/mL)): 0.818
(%) of Subjects Censored [3, 12]: ( 16.1%)
(%) of Subjects with Disease Progression, Observed [3, 12]: ( 83.9%)
Median Time to Event [3, 12]: 48.0 days
Month 3 Survival Rate(%) [3, 12]: 34.5%
Month 6 Survival Rate(%) [3, 12]: 20.7%
Month 9 Survival Rate(%) [3, 12]: 11.0%
Month 12 Survival Rate(%) [3, 12]: 0.0%
Number of Subjects Censored [3, 12]: 5
Active vs Control Hazard Ratio ([3]; progression-free survival, Table 4, C-Reactive Protein ≦ 13 (μg/mL)): 0.619

The remaining lines, values ahead:

JAK2/JAK1 [1]: >10
IC50 [2]: < 10 nM
SMILES: N#CCC(C1CCN(c2cccc(Cl)n2)C1)n1cc(-c2ncnc3[nH]ccc23)cn1 (single isomer, unassigned) [Compound 3, 3-[1-(6-chloropyridin-2-yl)pyrrolidin-3-yl]-3-[4-(7H-pyrrolo[2,3-d]pyrimidin-4-yl)-1H-pyrazol-1-yl]propanenitrile]

JAK2/JAK1 [1]: >10
IC50 [2]: < 10 nM
SMILES: N#CCC(C1CCN(c2nc3cccnc3o2)C1)n1cc(-c2ncnc3[nH]ccc23)cn1 (stereo not shown) [Compound 4, 3-(1-[1,3]oxazolo[5,4-b]pyridin-2-ylpyrrolidin-3-yl)-3-[4-(7H-pyrrolo[2,3-d]pyrimidin-4-yl)-1H-pyrazol-1-yl]propanenitrile]

JAK2/JAK1 [1]: >10
IC50 [2]: < 10 nM
SMILES: N#CCC(CN1CCN(C(=O)c2ccc(C#N)cc2F)CC1)n1cc(-c2ncnc3[nH]ccc23)cn1 (stereo not shown) [Compound 5, 4-[(4-{3-cyano-2-[4-(7H-pyrrolo[2,3-d]pyrimidin-4-yl)-1H-pyrazol-1-yl]propyl}piperazin-1-yl)carbonyl]-3-fluorobenzonitrile]

JAK2/JAK1 [1]: >10
IC50 [2]: < 10 nM
SMILES: N#CCC(CN1CCN(C(=O)c2ccc(C#N)cc2F)CC1)n1ccc(-c2ncnc3[nH]ccc23)c1 (stereo not drawn) [Compound 6, 4-[(4-{3-cyano-2-[3-(7H-pyrrolo[2,3-d]pyrimidin-4-yl)-1H-pyrrol-1-yl]propyl}piperazin-l-yl)carbonyl]-3-fluorobenzonitrile]
